Measurements: patent US7084158B2, “Substituted propargylamines” (Bayer Cropscience S.A., priority 2001, dated 2006)

Assays:
Type in all cases: in vivo
Set-up in all cases: key: compounds were considered to be active when, at a concentration of 500 ppm or less, they had an activity on the harmful organisms of 50% or more
Heliothis virescens = assay: Example B: tobacco budworm eggs on filter paper/insect diet, mortality; settings: 500 ppm or less; 24-hour-old eggs dipped, diet treated; after 6 days
Carpocapsa pomonella = assay: Example D: dipped apples, codling moth L1 larvae mortality; settings: 500 ppm or less, after 14 days
Procedure: Apples were dipped into an aqueous solution of the formulated compound to be examined. The apples were then populated with 10 L1 larvae of the codling moth (Carpocapsa pomonella). After 14 days of storage at about 25° C., the effect of the compound on the larvae was determined (mortality). The compounds of the following examples were active: Nos. 14, 15, 17, 18, 70, 1007, 1008, 1009, 1036, 1038, 197.

[1] = tested on: Diabrotica undecimpunctata; assay: Example C: corn rootworm eggs with maize corn, mortality; settings: 500 ppm or less; 4-5-day-old eggs; after 6 days
Nilaparvata lugens = assay: Example A: rice leaf dip, leafhopper larvae mortality; settings: 500 ppm or less; L3 larvae on dipped rice plants; after 6 days
Procedure: The leaves of 12 rice plants having a stem length of 8 cm were dipped for 5 seconds into an aqueous solution of the formulated compound to be examined. After the solution had run off, the rice plants treated in this manner were placed into a Petri dish and populated with about 20 larvae (L3 stage) of the rice leafhopper species Nilaparvata lugens. The Petri dish was closed and then stored in a climatized chamber (16 hours of light/day, 25° C., 40–60% relative atmospheric humidity). After 6 days of storage, the mortality among the leafhopper larvae was determined. The compounds of the following examples were active: Nos. 29, 32, 42, 43, 51, 70, 84, 1002, 1004, 1005, 1040, 180, 184, 193, 197, 203, 209, 1059, 264, 265, 1066.

Spodoptera littoralis = assay: Example G: treated L2 larvae and insect diet, Egyptian cotton leafworm mortality; settings: 500 ppm or less, after 6 days
Procedure: A Petri dish whose bottom was covered with filter paper and which contained about 5 ml of insect diet is prepared. Five L2 larvae of the Egyptian cotton leafworm (Spodoptera littoralis) were counted into a small beaker. 200 μl of an aqueous solution of the formulated preparation to be examined were pipetted into the beaker. The treated larvae were then poured into the Petri dish, and a further 200 μl of the aqueous solution were distributed over the insect diet. The Petri dish was closed and then stored at about 25° C. in a climatized chamber. After 6 days of storage, the effect of the compound on the larvae was determined (mortality). The compounds of the following examples were active: 29, 70, 60, 159, 1005, 1040, 1042, 1044, 1045, 1046, 1047.

Meloidogyne incognita = assay: Example H: root gall nematode larvae immobilization (contact activity); settings: 500 ppm or less; 2nd stage larvae; 6 days permanent exposure
Procedure: In a glass vessel, an aqueous solution of the formulated compound to be examined was added to about 3000 freshly hatched active (mobile) larvae (2nd development stage) of the root gall nematode (Meloidogyne incognita) (final volume 20 ml). After 6 days of permanent exposure of the nematode larvae, the percentage of the individual larvae immobilized by the activity of the compound was determined in comparison to the untreated controls (contact activity). The compounds of the following examples were active: 39, 52, 159, 161, 162, 163, 164, 165, 1045, 1046, 1047, 179, 183, 187, 1048, 298, 206, 208, 227, 230, 1061, 237, 238, 245, 250, 255, 256, 260, 268, 269, 274, 275, 288, 290.

Aedes aegypti = assay: Example AG: microtiter plate, yellow fever mosquito larvicidal activity; settings: 500 ppm or less, after 3 days

SMILES	effect on the eggs and hatched larvae (mortality) (Heliothis virescens)	percentage of larvae immobilized (contact activity) (Meloidogyne incognita)	larvicidal activity (Aedes aegypti)	other results
CC1CCN(CC#Cc2ccc(Cl)c(C(F)(F)F)c2)CC1 [Example 14]	active	–	–	effect on the larvae (mortality) (Carpocapsa pomonella): active
CC1CCN(CC#Cc2ccc(Cl)c(Cl)c2Cl)CC1 [Example 15]	active	–	–	effect on the larvae (mortality) (Carpocapsa pomonella): active
COc1c(Cl)cc(C#CCN2CCC(C)CC2)cc1Cl [Example 17]	active	–	–	effect on the eggs and hatched larvae (mortality) [1]: active; effect on the larvae (mortality) (Carpocapsa pomonella): active
CC1CCN(CC#Cc2ccc(C(F)(F)F)cc2)CC1 [Example 29]	active	–	–	mortality among the leafhopper larvae (Nilaparvata lugens): active; effect on the larvae (mortality) (Spodoptera littoralis): active
CCC1CCCN(CC#Cc2cc(C(F)(F)F)cc(C(F)(F)F)c2)C1 (stereo not drawn) [Example 32]	active	–	–	mortality among the leafhopper larvae (Nilaparvata lugens): active; effect on the eggs and hatched larvae (mortality) [1]: active
CC1CCCCN1CC#Cc1cc(C(F)(F)F)cc(C(F)(F)F)c1 (stereo not drawn) [Example 39]	–	active	–	–
FC(F)(F)c1cc(C#CCN2CCCC3CCCCC32)cc(C(F)(F)F)c1 (stereo not drawn) [Example 42]	–	–	–	mortality among the leafhopper larvae (Nilaparvata lugens): active
CN1CCN(CC#Cc2cc(C(F)(F)F)cc(C(F)(F)F)c2)CC1 [Example 51]	–	–	–	mortality among the leafhopper larvae (Nilaparvata lugens): active
CN1CCN(CC#Cc2ccc(C(F)(F)F)cc2)CC1 [Example 52]	–	active	–	–
CC1(C)CCCC(C)(C)N1CC#Cc1ccccc1 [Example 84]	–	–	–	mortality among the leafhopper larvae (Nilaparvata lugens): active
CSc1nc(C#CCN2CC(C)CC(C)C2)cc(C(F)(F)F)n1 (stereo not drawn) [Example 159]	–	active	–	effect on the larvae (mortality) (Spodoptera littoralis): active
Cc1nc(C#CCN2CCC(C)CC2)cc(C(F)(F)F)n1 [Example 161]	–	active	–	–
CSc1nc(C#CCN2CCCCCC2)cc(C(F)(F)F)n1 [Example 164]	–	active	–	–
CC1CCN(CC#Cc2nc(C(F)(F)F)ccc2C(F)(F)F)CC1 [Example 165]	–	active	–	–
Cc1ccc([N+](=O)[O-])cc1-c1ccc(C#CCN2CCC(C)CC2)cc1 [Example 179]	active	active	–	–
CC1CCN(CC#Cc2ccc(-c3cccc(Cl)c3Cl)cc2)CC1 [Example 180]	active	–	–	mortality among the leafhopper larvae (Nilaparvata lugens): active
Cc1ccccc1-c1ccc(C#CCN2CCC(C)CC2)cc1 [Example 183]	active	active	–	–
CC1CCN(CC#Cc2ccc(-c3cccnc3Cl)cc2)CC1 [Example 187]	–	active	–	–
CC1CCN(CC#Cc2cc(C(F)(F)F)ccn2)CC1 [Example 203]	active	–	–	mortality among the leafhopper larvae (Nilaparvata lugens): active; effect on the eggs and hatched larvae (mortality) [1]: active
CC1CCN(CC#Cc2ccc([N+](=O)[O-])s2)CC1 [Example 208]	–	active	–	–
CC1CCN(CC#Cc2ccc(Br)s2)CC1 [Example 215]	active	–	active	–
CC1CCN(CC#Cc2ccc(Cl)s2)CC1 [Example 216]	active	–	active	–
CC1CCN(CC#Cc2cccc(-c3nccs3)c2)CC1 [Example 227]	–	active	–	–

SMILES	effect on the eggs and hatched larvae (mortality) (Heliothis virescens)	percentage of larvae immobilized (contact activity) (Meloidogyne incognita)	larvicidal activity (Aedes aegypti)	other results
CC1CCN(CC#Cc2ccc(-c3ccc(F)cc3)s2)CC1 [Example 230]	active	active	–	–
Cc1cc(C#CCN2CCC(C)CC2)sc1-c1ccc(-c2ccccc2)cc1 [Example 237]	–	active	–	–
Cc1cc(C#CCN2CCC(C)CC2)sc1-c1ccsc1 [Example 238]	–	active	–	–
CC1CCN(CC#Cc2ccc(-c3ccc(OC(F)(F)F)cc3)s2)CC1 [Example 244]	active	–	active	–
CC1CCN(CC#Cc2ccc(-c3ccc(F)c(Cl)c3)c(F)c2)CC1 [Example 249]	–	–	active	–
CCc1ccc(C#CCN2CCC(C)CC2)cc1F [Example 254]	active	–	active	–
CCc1ccc(C#CCN2CCC(C)CC2)cc1C(F)(F)F [Example 264]	–	–	active	mortality among the leafhopper larvae (Nilaparvata lugens): active
CC1CCN(CC#Cc2cc(C(F)(F)F)cc(C(F)(F)F)c2)CC1C (stereo not drawn) [Example 267]	–	–	active	effect on the eggs and hatched larvae (mortality) [1]: active
CC1CCN(CC#Cc2ccc(-c3ccc(Cl)cc3Cl)s2)CC1 [Example 274]	–	active	–	–
CC1CCN(CC#Cc2ccc(C#N)c(Cl)c2)CC1 [Example 289]	active	–	active	–
CC1CCN(CC#Cc2ccc(C=NOCc3ccccc3)s2)CC1 [Example 292]	active	–	active	–
Cc1ccc(C#CCN2CCC(C)CC2)s1 [Example 293]	–	–	active	–
Cc1cc(C)nc(C#CCN2CCC(C)CC2)c1 [Example 294]	–	–	active	–
CC1CCN(CC#Cc2ccc(C=O)s2)CC1 [Example 298]	–	active	–	effect on the eggs and hatched larvae (mortality) [1]: active
CC1CCN(CC#Cc2ccc(C(F)(F)F)cc2)CC1.Cl [Example 1042]	active	–	–	effect on the eggs and hatched larvae (mortality) [1]: active; effect on the larvae (mortality) (Spodoptera littoralis): active
C[C@@H]1C[C@H](C)CN(CC#Cc2cc(C(F)(F)F)cc(C(F)(F)F)c2)C1.Cl [Example 1044]	active	–	–	effect on the larvae (mortality) (Spodoptera littoralis): active
CC1CCN(CC#Cc2cc(C(F)(F)F)cc(C(F)(F)F)n2)CC1.CCCCCCCCC(=O)O [Example 1045]	active	active	–	effect on the larvae (mortality) (Spodoptera littoralis): active
CC1CCN(CC#Cc2cc(C(F)(F)F)cc(C(F)(F)F)n2)CC1.O=C(O)C(F)(F)F [Example 1046]	active	active	–	effect on the larvae (mortality) (Spodoptera littoralis): active
CC1CCN(CC#Cc2ccc(C(F)(F)F)c(Cl)n2)CC1.Cl [Example 1048]	active	active	–	–
CCS(=O)(=O)O.Cc1cc(C(F)(F)F)cc(C#CCN2CCC(C)CC2)n1 [Example 1064]	–	–	active	effect on the eggs and hatched larvae (mortality) [1]: active
CC1CCN(CC#Cc2ccc(Br)c(C(F)(F)F)c2)CC1.O=C(O)/C=C\C(=O)O [Example 1066]	–	–	active	mortality among the leafhopper larvae (Nilaparvata lugens): active; effect on the eggs and hatched larvae (mortality) [1]: active
Cc1cc(C#CCN2CCC(C)CC2)cc(C(F)(F)F)c1.Cl [Example 1069]	–	–	active	effect on the eggs and hatched larvae (mortality) [1]: active
